{"source": "patent US10071966B2", "about": "“Drug for inhibiting aggregation of proteins involved in diseases linked to protein aggregation and/or neurodegenerative diseases” (Ludwig-Maximilians-Universität München, priority 2008, dated 2018)", "key": {"[1]": {"tested_on": "PrP^Sc accumulation in brain (RML scrapie)", "type": "in vivo, C57BL/6 mice", "settings": "brain at 120 dpi"}, "[2]": {"target": "α-synuclein (Homo sapiens, UniProt P37840)", "experiment": "Inhibition of the formation of α-synuclein aggregates (intermediate II oligomers), confocal single molecule spectroscopy (Example 16)", "type": "biochemical"}, "[3]": {"tested_on": "RML scrapie", "type": "in vivo, C57Bl6 mice", "settings": "i.c. RML scrapie"}, "[4]": {"tested_on": "PrPSc in spleen (RML scrapie)", "type": "in vivo, C57Bl6 mice", "settings": "i.p. RML scrapie; 25 μL 100 mM i.p. 14 days then 50 mg/kg oral; day 35 post infection"}, "[5]": {"tested_on": "PrP^Sc accumulation in spleen (RML scrapie)", "type": "in vivo, C57BL/6 mice", "settings": "i.p. infection; 34 days of 1 mg compound per day in DMSO+peanut butter; spleen at 35 dpi"}, "[6]": {"tested_on": "RML scrapie", "type": "in vivo, C57BL/6 mice"}, "[7]": {"tested_on": "RML scrapie", "type": "in vivo, C57BL/6 mice", "settings": "different times and schedules of treatment; p<0.01"}, "[8]": {"tested_on": "PrPSc in brain (RML scrapie)"}, "[9]": {"experiment": "Pharmacokinetic analysis of anle138b, compound in brain and serum by LC-MS (Example 15)", "settings": "single dose, non-infected mice"}, "[10]": {"settings": "5 mg per day orally in DMSO+peanut butter from 80 or 120 dpi"}, "[11]": {"settings": "i.c. RML scrapie, treatment from day 80"}}, "note": "Entries after “also recorded” stand apart in the source; their conditions may differ. Like-named read-outs stand apart in the source and are kept apart here."}
{"smiles": "Nc1ccc(-c2cc(-c3cccc(Cl)c3)n[nH]2)cc1", "note": "[sery383]", "values": [{"measurement": "reduction of PrPC accumulation compared to DMSO-treated controls", "setting": "[1]; 1 mg compound per day orally in DMSO+peanut butter from 80 dpi", "value": 30, "unit": "%"}, {"measurement": "inhibition of alpha-synuclein aggregation", "setting": "[2]", "value": "highly active"}, {"measurement": "Intermediate II (formation of intermediate II oligomers in comparison to controls without compound)", "setting": "[2]; compound 10 μM, aggregation induced by DMSO and 10 μM FeCl3", "value": "<5", "unit": "%"}]}
{"smiles": "FCCn1nc(-c2ccc3c(c2)OCO3)cc1-c1cccc(Br)c1", "note": "[sery363a]", "values": [{"measurement": "reduction of PrPC accumulation compared to DMSO-treated controls", "setting": "[1]; 3 mg compound per day orally in DMSO+peanut butter from 80 dpi", "value": 35, "unit": "%"}]}
{"smiles": "Brc1cccc(-c2cc(-c3ccc4c(c3)OCO4)n[nH]2)c1", "note": "[anle138b, 3-(1,3-Benzodioxol-5-yl)-5-(3-bromophenyl)-1H-pyrazole]", "values": [{"measurement": "effect of treatment on survival time", "setting": "[3]; daily i.p. for 14 days from day 80 post infection", "value": "significantly prolongs the survival times"}, {"measurement": "average survival time prolonged by, in comparison to DMSO vehicle group", "setting": "[3]; i.p. 25 μL per day of 100 mM compound for 14 days from day 80 post infection", "value": 14.9, "unit": "days"}, {"measurement": "PrPSc deposits in spleen tissue (immunohistology)", "setting": "[4]", "value": "reduced"}, {"measurement": "splenic PrPSc level (immunoblot / dot blot) compared to vehicle-treated mice", "setting": "[4]", "value": "strong reduction in PrPSc levels; also recorded: decreases significantly"}, {"measurement": "Inhibition [%] of PrPSc accumulation in brain, protocol a", "setting": "[1]; 1 mg compound per day orally in DMSO+peanut butter from 80 dpi, relative to DMSO-treated (0%) and start of treatment (100%)", "value": 69, "unit": "%"}, {"measurement": "PrPSc accumulation in brain, dose dependence", "setting": "[1]; different amounts orally in DMSO+peanut butter from 80 dpi", "value": "reduced PrP^Sc accumulation in brain in a dose-dependent manner"}, {"measurement": "Inhibition [%] of PrPSc accumulation in spleen, protocol c", "setting": "[5]", "value": 62, "unit": "%"}, {"measurement": "PrPSc accumulation in brain (stained sections, brain homogenates)", "setting": "[6]; [10]", "value": "strongly reduced"}, {"measurement": "apoptotic cells in the cerebellum (neuronal cell death)", "setting": "[6]; [10]", "value": "inhibition of neuronal cell death"}, {"measurement": "time for which weight loss is prevented", "setting": "[6]; 5 mg per day orally, treatment from 80 dpi onwards", "value": "~100", "unit": "days"}, {"measurement": "time for which weight loss is inhibited", "setting": "[6]; 5 mg per day orally, treatment from 120 dpi", "value": "~70", "unit": "days"}, {"measurement": "survival times after challenge with RML scrapie", "setting": "[7]", "value": "significantly prolonged the survival times"}, {"measurement": "Inhibition [%] of PrPSc accumulation in brain, protocol b", "setting": "[8]; 0.84 mg per day i.p. 14 days from 80 dpi then 2x5 days 1 mg by gavage, brain at 106 dpi, relative to DMSO-treated (0%) and start of treatment (100%)", "value": 108, "unit": "%"}, {"measurement": "change of relative PrPSc levels in brain compared to untreated control at day 80", "setting": "[8]; [11]", "value": "slighty decreased"}, {"measurement": "pathological changes / apoptotic cells in cerebellar granule cell layer (H&E stained brain slices)", "setting": "[8]; [11]", "value": "reduction of pathological changes"}, {"measurement": "survival time until terminal stage of scrapie infection", "setting": "[8]; i.c. RML scrapie, treatment from day 80, two anle138b mice additionally fed compound in peanut butter day 109 to 136", "value": "longer survival times"}, {"measurement": "brain penetration", "setting": "[9]", "value": "good brain penetration"}, {"measurement": "oral bioavailability", "setting": "[9]", "value": "good oral bioavailability"}]}
